Measurements reported in paper PMC7618122 (American journal of physiology. Heart and circulatory …, 2025).

Target: T1, Nav1.5 (Homo sapiens, UniProt Q14524, F1760A)
T1 construct: gene SCN5A

**Q.** For Cc1cccc(C)c1OCC(C)N (stereo not shown) [MEXI, mexiletine], which “whole-cell patch clamp of tsA201 cells after 24-h incubation with 100 μM; effect” value is on record?
**A.** The value was “Nav1.5-F1760A peak INa densities, on the other hand, were significantly enhanced after 24-h incubation with MEXI”.
